What was measured:
[1] = tested on: glucocorticoid receptor; experiment: Glucocorticoid receptor cell assays, antagonist activity; type: cell-based; conditions: assay not given
Method: B. Glucocorticoid Receptor Cell Assays
Evaluation of agonist or antagonist activity of compounds binding to the glucocorticoid receptor may be determined by any of the assays.
3. Modulation of Tyrosine Aminotransferase (TAT) Induction in Rat Hepatoma Cells
Testing of compounds for agonist or antagonist activity in induction of tyrosine aminotransferase (TAT) in rat hepatoma cells.
H4-II-E-C3 cells were incubated overnight in 96 well plates (20,000 cells/100 μL/well) in MEM medium containing 10% heat inactivated FBS and 1% nonessential amino acids. On the next day, cells were stimulated with the indicated concentrations of dexamethasone or test compound (dissolved in DMSO, final DMSO concentration 0.2%) for 18 hours. Control cells were treated with 0.2% DMSO. After 18 hours, the cells were lysed in a buffer containing 0.1% Triton X-100 and the TAT activity was measured in a photometric assay using tyrosine and alpha-ketoglutarate as substrates. […]
Cells were cultured overnight in DMEM medium without phenol red, supplemented with 3% CCS (charcoal treated calf serum) and then transferred to 96 well plates (15,000 cells/100 μL/well). […] After 18 hours, the cells were lysed with cell lysis reagent (Promega, Cat. No. E1531), luciferase assay reagent (Promega, Cat. No. E1501) was added and the glow luminescence was measured using a luminometer (BMG, Offenburg). […]

[2] = tested on: glucocorticoid receptor; experiment: Glucocorticoid receptor function, one or more of the above assays (binding and cell assays); type: cell-based; conditions: in one or more of the above assays; assay not given
Method: Compounds of the invention were evaluated for binding to the steroid receptor by a fluorescence polarization competitive binding assay. Detailed descriptions for preparation of recombinant glucocorticoid receptor (GR) complex used in the assay is described in U.S. Patent Application Publication No. 2003/0,017,503, filed May 20, 2002, and the corresponding U.S. provisional application No. 60/291,877, filed May 18, 2001, each of which is incorporated herein by reference in its entirety. Preparation of the tetramethyl rhodamine (TAMRA)-labeled dexamethasone probe was accomplished using a standard literature procedure (M. Pons et al., J. Steroid Biochem., 1985, 22, pp. 267-273).
This assay uses fluorescence polarization (FP) to quantitate the ability of test compounds to compete with tetramethyl rhodamine (TAMRA)-labeled dexamethasone for binding to a human glucocorticoid receptor (GR) complex prepared from an insect expression system. […]
The binding reactions were incubated for 1 hour at room temperature and then read for fluorescence polarization in the LJL Analyst set to 550 nm excitation and 580 nm emission, with the Rhodamine 561 dichroic mirror installed. IC50 values were determined by iterative non-linear curve fitting of the FP signal data to a 4-parameter logistic equation. […]

Row | Structure (SMILES) | activity as antagonists in cellular assays [1] | activity as an agonist of the glucocorticoid receptor function [2]
1 | C=CCOC(C)C1=CC(C)(C)Nc2ccc(-c3ccccc3OC)cc21 (stereo not drawn) [4-(1-Allyloxyethyl)-6-(2-methoxyphenyl)-2,2-dimethyl-1,2-dihydroquinoline] | potent activity as antagonists | 
2 | C=CCOC(C)C1=CC(C)(C)Nc2ccc(-c3cc(F)ccc3OC)cc21 (stereo not drawn) [4-(1-Allyloxyethyl)-6-(5-fluoro-2-methoxyphenyl)-2,2-dimethyl-1,2-dihydroquinoline] |  | activity as an agonist
3 | C=CCSCC1=CC(C)(C)Nc2ccc(-c3ccccc3OC)cc21 [4-Allylsulfanylmethyl-6-(2-methoxyphenyl)-2,2-dimethyl-1,2-dihydroquinoline] | potent activity as antagonists | 

— patent US6858627B2, “Glucocorticoid mimetics, methods of making them, pharmaceutical compositions, and uses thereof” (Boehringer Ingelheim Pharmaceuticals, Inc., priority 2002, dated 2005)
